Results as given in ChEMBL document CHEMBL1671673, “In vitro activity of colistin (polymyxin E) against 3,480 isolates of gram-negative bacilli obtained from patients in Canadian hospitals in the CANWARD study, 2007-2008” (Antimicrob Agents Chemother, 2009).

How the values were obtained:
Format in all cases: functional, organism-based
Design in all cases: scale not given: the % may be the effect or the level left
Klebsiella pneumoniae [1] = test: Antibacterial activity against ESBL-producing Klebsiella pneumoniae assessed as susceptible isolates at minimum inhibitory concentration of 1 ug/ml by CLSI broth microdilution method
Escherichia coli [2] = test: Antibacterial activity against ESBL-producing Escherichia coli assessed as susceptible isolates at minimum inhibitory concentration of 0.25 ug/ml by CLSI broth microdilution method
Proteus mirabilis [3] = test: Antibacterial activity against Proteus mirabilis assessed as susceptible isolates at minimum inhibitory concentration of 0.25 ug/ml by CLSI broth microdilution method
Klebsiella oxytoca = test: Antibacterial activity against Klebsiella oxytoca assessed as susceptible isolates at minimum inhibitory concentration of 0.12 ug/ml by CLSI broth microdilution method
Pseudomonas aeruginosa [4] = test: Antibacterial activity against MDR3 Pseudomonas aeruginosa assessed as susceptible isolates at minimum inhibitory concentration of 1 ug/ml by CLSI broth microdilution method
Pseudomonas aeruginosa [5] = test: Antibacterial activity against Ciprofloxacin-resistant Pseudomonas aeruginosa assessed as susceptible isolates at minimum inhibitory concentration of 2 ug/ml by CLSI broth microdilution method
[6] = system: Stenotrophomonas maltophilia; test: Antibacterial activity against Stenotrophomonas maltophilia assessed as susceptible isolates at minimum inhibitory concentration of >16 ug/ml by CLSI broth microdilution method
Proteus mirabilis [7] = test: Antibacterial activity against Proteus mirabilis assessed as susceptible isolates at minimum inhibitory concentration of 0.5 ug/ml by CLSI broth microdilution method
Pseudomonas aeruginosa [8] = test: Antibacterial activity against Cefepime-resistant Pseudomonas aeruginosa assessed as susceptible isolates at minimum inhibitory concentration of 2 ug/ml by CLSI broth microdilution method
[9] = system: Stenotrophomonas maltophilia; test: Antibacterial activity against Stenotrophomonas maltophilia assessed as susceptible isolates at minimum inhibitory concentration of 2 ug/ml by CLSI broth microdilution method
Enterobacter cloacae [10] = test: Antibacterial activity against Enterobacter cloacae assessed as susceptible isolates at minimum inhibitory concentration of 1 ug/ml by CLSI broth microdilution method
Pseudomonas aeruginosa [11] = test: Antibacterial activity against Piperacillin-resistant Pseudomonas aeruginosa assessed as susceptible isolates at minimum inhibitory concentration of 2 ug/ml by CLSI broth microdilution method
Proteus mirabilis [12] = test: Antibacterial activity against Proteus mirabilis assessed as susceptible isolates at minimum inhibitory concentration of <=0.06 ug/ml by CLSI broth microdilution method
Enterobacter cloacae [13] = test: Antibacterial activity against Enterobacter cloacae assessed as susceptible isolates at minimum inhibitory concentration of 2 ug/ml by CLSI broth microdilution method
[14] = system: Stenotrophomonas maltophilia; test: Antibacterial activity against Stenotrophomonas maltophilia assessed as susceptible isolates at minimum inhibitory concentration of 0.25 ug/ml by CLSI broth microdilution method
[15] = system: Stenotrophomonas maltophilia; test: Antibacterial activity against Stenotrophomonas maltophilia assessed as susceptible isolates at minimum inhibitory concentration of 8 ug/ml by CLSI broth microdilution method
Pseudomonas aeruginosa [16] = test: Antibacterial activity against Piperacillin-resistant Pseudomonas aeruginosa assessed as susceptible isolates at minimum inhibitory concentration of 0.5 ug/ml by CLSI broth microdilution method
Acinetobacter baumannii [17] = test: Antibacterial activity against Acinetobacter baumannii assessed as susceptible isolates at minimum inhibitory concentration of 0.25 ug/ml by CLSI broth microdilution method
Pseudomonas aeruginosa [18] = test: Antibacterial activity against Ciprofloxacin-resistant Pseudomonas aeruginosa assessed as susceptible isolates at minimum inhibitory concentration of 16 ug/ml by CLSI broth microdilution method
Serratia marcescens [19] = test: Antibacterial activity against Serratia marcescens assessed as susceptible isolates at minimum inhibitory concentration of 8 ug/ml by CLSI broth microdilution method
Klebsiella pneumoniae [20] = test: Antibacterial activity against ESBL-producing Klebsiella pneumoniae assessed as susceptible isolates at minimum inhibitory concentration of <=0.06 ug/ml by CLSI broth microdilution method
Escherichia coli [21] = test: Antibacterial activity against ESBL-producing Escherichia coli assessed as susceptible isolates at minimum inhibitory concentration of 2 ug/ml by CLSI broth microdilution method
Pseudomonas aeruginosa [22] = test: Antibacterial activity against Gentamicin-resistant Pseudomonas aeruginosa assessed as susceptible isolates at minimum inhibitory concentration of 4 ug/ml by CLSI broth microdilution method
Pseudomonas aeruginosa [23] = test: Antibacterial activity against Ciprofloxacin-resistant Pseudomonas aeruginosa assessed as susceptible isolates at minimum inhibitory concentration of 8 ug/ml by CLSI broth microdilution method
Pseudomonas aeruginosa [24] = test: Antibacterial activity against Gentamicin-resistant Pseudomonas aeruginosa assessed as susceptible isolates at minimum inhibitory concentration of 16 ug/ml by CLSI broth microdilution method
Proteus mirabilis [25] = test: Antibacterial activity against Proteus mirabilis assessed as susceptible isolates at minimum inhibitory concentration of 1 ug/ml by CLSI broth microdilution method
Enterobacter cloacae [26] = test: Antibacterial activity against Enterobacter cloacae assessed as susceptible isolates at minimum inhibitory concentration of 16 ug/ml by CLSI broth microdilution method
Enterobacter cloacae [27] = test: Antibacterial activity against Enterobacter cloacae assessed as susceptible isolates at minimum inhibitory concentration of 0.5 ug/ml by CLSI broth microdilution method
Serratia marcescens [28] = test: Antibacterial activity against Serratia marcescens assessed as susceptible isolates at minimum inhibitory concentration of 16 ug/ml by CLSI broth microdilution method
Acinetobacter baumannii [29] = test: Antibacterial activity against Acinetobacter baumannii assessed as susceptible isolates at minimum inhibitory concentration of 8 ug/ml by CLSI broth microdilution method
Pseudomonas aeruginosa [30] = test: Antibacterial activity against Meropenem-resistant Pseudomonas aeruginosa assessed as susceptible isolates at minimum inhibitory concentration of 4 ug/ml by CLSI broth microdilution method
Acinetobacter baumannii [31] = test: Antibacterial activity against Acinetobacter baumannii assessed as susceptible isolates at minimum inhibitory concentration of 0.5 ug/ml by CLSI broth microdilution method
Pseudomonas aeruginosa [32] = test: Antibacterial activity against Amikacin-resistant Pseudomonas aeruginosa assessed as susceptible isolates at minimum inhibitory concentration of 4 ug/ml by CLSI broth microdilution method

Sequence COLISTIN has an Activity (Klebsiella pneumoniae [1]) of 95%, an Activity (Escherichia coli [2]) of 26.1% and an Activity (Proteus mirabilis [3]) of 0%. For the same sequence, the Activity (Klebsiella oxytoca) was 0%, the Activity (Pseudomonas aeruginosa [4]) was 36% and the Activity (Pseudomonas aeruginosa [5]) was 92.5%. The Activity [6] was 100%, the Activity (Proteus mirabilis [7]) was 0% and the Activity (Pseudomonas aeruginosa [8]) was 97.3%. For the same sequence, the Activity [9] was 15.7%, the Activity (Enterobacter cloacae [10]) was 82.3% and the Activity (Pseudomonas aeruginosa [11]) was 92.9%. It also gave an Activity (Proteus mirabilis [12]) of 0%, an Activity (Enterobacter cloacae [13]) of 83.9% and an Activity [14] of 1.2%. For the same sequence, the Activity [15] was 50.6%, the Activity (Pseudomonas aeruginosa [16]) was 1.8% and the Activity (Acinetobacter baumannii [17]) was 0%. It also gave an Activity (Pseudomonas aeruginosa [18]) of 98.6%, an Activity (Serratia marcescens [19]) of 1.9% and an Activity (Klebsiella pneumoniae [20]) of 0%. For the same sequence, the Activity (Escherichia coli [21]) was 99.4%, the Activity (Pseudomonas aeruginosa [22]) was 99% and the Activity (Pseudomonas aeruginosa [23]) was 98.6%. It also gave an Activity (Pseudomonas aeruginosa [24]) of 99%, an Activity (Proteus mirabilis [25]) of 0% and an Activity (Enterobacter cloacae [26]) of 88.2%. It also gave an Activity (Enterobacter cloacae [27]) of 69.9%, an Activity (Serratia marcescens [28]) of 1.9% and an Activity (Acinetobacter baumannii [29]) of 93.5%. For the same sequence, the Activity (Pseudomonas aeruginosa [30]) was 100%, the Activity (Acinetobacter baumannii [31]) was 6.5% and the Activity (Pseudomonas aeruginosa [32]) was 97.4%.
